Literature values, collected in patent US6441051B1, “Insect eradicator and method” (priority 2001, dated 2002).

System: fire ants
Settings: d-limonene at about 5% concentration, after twenty-four hours

C=C(C)[C@H]1CC=C(C)CC1 [d-limonene]
kill rate: approximately 70%
